Test results: patent publication US20090297469A1, “Cyanoacrylate Monomer Formulation Containing Diiodomethyl-p-tolylsulfone and 2,4,4'-Trichloro-2'-Hydroxydiphenyl Ether” (priority 2004, published 2009)
Values after ≈ are worked out from the molar mass of the structure shown. Blank lines part the entries; values can stand above or below the compound they belong to.

Experiments:
[1] = aqueous; cited from earlier work
Escherichia coli 8739 = experiment: MIC/MBC by tube dilution procedure; type: cell-based; conditions: preliminary evaluation
Description: (§1) The effectiveness of the antimicrobial property of pure DIMPTS is described in terms of minimum inhibitory concentration (MIC) and minimum bactericidal concentration (MBC) in Table II (A). Minimum inhibitory concentration is the lowest concentration that prevents the development of visible growth after a period of incubation. Minimum bactericidal concentration is the lowest concentration that achieves a 1000 fold or greater reduction in the original bacterial inoculum. The minimum inhibitory concentration and minimum bactericidal concentration is evaluated using tube dilution procedure.

[2] = tested on: Staphylococcus epidermidis 51625; experiment: MIC/MBC by tube dilution procedure; type: cell-based; conditions: preliminary evaluation
Description: as §1

Bacillus subtilis 902173 = experiment: MIC/MBC by tube dilution procedure; type: cell-based; conditions: preliminary evaluation
Description: as §1

[3] = tested on: Staphylococcus aureus 6538; experiment: MIC/MBC by tube dilution procedure; type: cell-based; conditions: preliminary evaluation
Description: as §1

[4] = tested on: Streptococcus agalactiae 624; experiment: MIC/MBC by tube dilution procedure; type: cell-based; conditions: preliminary evaluation
Description: as §1

[5] = tested on: Pseudomonas aeruginosa 9027; experiment: MIC/MBC by tube dilution procedure; type: cell-based; conditions: preliminary evaluation
Description: as §1

Candida albicans 10231 = experiment: MIC/MBC by tube dilution procedure; type: cell-based; conditions: preliminary evaluation
Description: as §1

[6] = tested on: Staphylococcus aureus 33591; experiment: MIC/MBC by tube dilution procedure; type: cell-based; conditions: preliminary evaluation
Description: as §1, with “DIMPTS” left out

[7] = tested on: Enterococcus faecium 700221; experiment: MIC/MBC by tube dilution procedure; type: cell-based; conditions: preliminary evaluation
Description: as §1, with “DIMPTS” left out

[8] = tested on: S. aureus, E. coli, P. aeruginosa, K. pneumoniae, P. cepacia, E. cloacae, S. marcescens, S. pyogenes, E. faecalis-Vancomycin Resistant, C. albicans and B. …; conditions: reported for blends with acrylic hot melt adhesive polymers; cited from earlier work
[9] = tested on: genus Staphylococcus, Staphylococcus epidermidis, Staphylococcus aureus, methicillin-resistant Staphylococcus epidermidis, and methicillin-resistant …; conditions: cited from earlier work

Structure (SMILES): [O-][Cl+3]([O-])([O-])O [perchloric acid]
- pKa [1]: −5.0

- MIC (Escherichia coli 8739): 100 µg/mL (≈ 237 µM)
- MIC [2]: 25 µg/mL (≈ 59.2 µM)
- MIC (Bacillus subtilis 902173): 50 µg/mL (≈ 118 µM)
- MIC [3]: 100 µg/mL (≈ 237 µM)
- MIC [4]: 50 µg/mL (≈ 118 µM)
- MIC [5]: > 100 µg/mL
- MIC (Candida albicans 10231): 5 µg/mL (≈ 11.8 µM)
- MIC [6]: 12.5 µg/mL (≈ 29.6 µM)
- MIC [7]: 50 µg/mL (≈ 118 µM)
Structure (SMILES): Cc1ccc(S(=O)(=O)C(I)I)cc1 [DIMPTS, diiodomethyl-p-tolylsulfone]
- MBC (Escherichia coli 8739): < 250 µg/mL
- MBC [2]: < 100 µg/mL
- MBC (Bacillus subtilis 902173): 50 to 100 µg/mL (≈ 118 to 237 µM)
- MBC [3]: < 250 µg/mL
- MBC [4]: 125 to 250 µg/mL (≈ 296 to 592 µM)
- MBC (Candida albicans 10231): 10 to 100 µg/mL (≈ 23.7 to 237 µM)
- MBC [6]: < 250 µg/mL
- Zones of inhibition against several organisms [8]: zones of inhibition

Structure (SMILES): Oc1cc(Cl)ccc1Oc1ccc(Cl)cc1Cl [2,4,4′-trichloro-2′-hydroxydiphenyl ether]
- Antimicrobial effect [9]: has an antimicrobial effect
